In patent US8455475B2 (Gruenenthal GmbH, priority 2009, dated 2013):

What follows are molecules tested against T1, rat B1R (bradykinin receptor 1) (Rattus norvegicus, UniProt P97583) (assay: FLIPR Ca2+ assay (Fluo-4) on CHO K1 cells stably transfected with the B1R gene of the rat (rB1R cells): % inhibition at 10 μM / IC50, agonist Des-Arg9-bradykinin). Conditions: CHO-K1, rat B1R.
T1 construct: expressed in transfected cells; host or cells: CHO K1 cells
T1 sequence (P97583 1-337): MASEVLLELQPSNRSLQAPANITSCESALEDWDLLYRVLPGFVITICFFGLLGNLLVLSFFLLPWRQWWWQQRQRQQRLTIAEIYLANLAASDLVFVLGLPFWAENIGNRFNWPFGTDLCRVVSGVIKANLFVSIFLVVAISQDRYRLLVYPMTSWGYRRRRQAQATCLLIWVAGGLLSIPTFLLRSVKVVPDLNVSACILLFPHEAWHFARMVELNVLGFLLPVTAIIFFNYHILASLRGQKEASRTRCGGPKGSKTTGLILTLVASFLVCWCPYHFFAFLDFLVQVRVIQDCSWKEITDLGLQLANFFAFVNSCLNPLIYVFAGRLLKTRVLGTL
Assay type: cell-based
Outline: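 Loading with Fluo-4 occurs for 60 min at 37 °C, or alternatively in buffer A, before FLIPR measurement. Compounds are applied, incubated 10–20 min, and then the EC80 agonist is added. Antagonism appears as reduced peak Ca2+ signal relative to maximal inhibition.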

Row | inhibition at 10 µM | Molecule
1 | 72% | O=C(NC1CCc2ccc(C(=O)N3CCC4(CCN(Cc5ccc(F)cc5F)CC4)C3)cc21)c1cc(C(F)(F)F)ccc1Cl (stereo not drawn) [IND_CC-635, 2-Chloro-N-[6-[8-[(2,4-difluoro-phenyl)-methyl]-2,8-diazaspiro[4.5]decane-2-carbonyl]-2,3-dihydro-1H-inden-1-yl]-5-(trifluoromethyl)-benzamide]
2 | 99% | Cc1cc(F)cc(C)c1S(=O)(=O)NC1CCc2ccc(C(=O)N3CCC4(CCN(c5ccncc5)CC4)C3)cc21 (stereo not drawn) [IND_CC-361, 4-Fluoro-2,6-dimethyl-N-[6-(8-pyridin-4-yl-2,8-diazaspiro[4.5]decane-2-carbonyl)-2,3-dihydro-1H-inden-1-yl]-benzenesulfonic acid amide]
3 | 104% | O=C(NC1CCc2ccc(C(=O)N3CCC4(CC3)CCN(c3ccncc3)C4)cc21)c1ccc(F)cc1C(F)(F)F (stereo not drawn) [IND_CC-381, 4-Fluoro-N-[6-(2-pyridin-4-yl-2,8-diazaspiro[4.5]decane-8-carbonyl)-2,3-dihydro-1H-inden-1-yl]-2-(trifluoromethyl)-benzamide]
4 | 92% | O=C(c1ccc2c(c1)C(NS(=O)(=O)c1c(Cl)cccc1Cl)CC2)N1CCC2(CCN(c3ccncc3)CC2)C1 (stereo not drawn) [IND_CC-333, 2,6-Dichloro-N-[6-(8-pyridin-4-yl-2,8-diazaspiro[4.5]decane-2-carbonyl)-2,3-dihydro-1H-inden-1-yl]-benzenesulfonic acid amide]
5 | 102% | O=C(NC1CCc2ccc(C(=O)N3CCC4(CCN(Cc5ccc[nH]5)CC4)CC3)cc21)c1c(F)cccc1Cl (stereo not drawn) [IND_CC-783, 2-Chloro-6-fluoro-N-[6-[9-(1H-pyrrol-2-yl-methyl)-3,9-diazaspiro[5.5]undecane-3-carbonyl]-2,3-dihydro-1H-inden-1-yl]-benzamide]
6 | 86% | CN(C(=O)c1ccccc1Cl)C1CCc2ccc(C(=O)N3CCC4(CCN(C(=O)CC(C)(C)C)CC4)C3)cc21 (stereo not drawn) [IND_CC-590, 2-Chloro-N-[6-[8-(3,3-dimethyl-butanoyl)-2,8-diazaspiro[4.5]decane-2-carbonyl]-2,3-dihydro-1H-inden-1-yl]-N-methyl-benzamide]
7 | 102% | CN(C1CCc2ccc(C(=O)N3CCC4(CC3)CCN(c3ccncc3)CC4)cc21)S(=O)(=O)c1c(Cl)cc(Cl)cc1Cl (stereo not drawn) [IND_CC-406, 2,4,6-Trichloro-N-methyl-N-[6-(9-pyridin-4-yl-3,9-diazaspiro[5.5]undecane-3-carbonyl)-2,3-dihydro-1H-inden-1-yl]-benzenesulfonic acid amide]
8 | 79% | Cn1nc(C(C)(C)C)cc1C(=O)N1CCC2(CCN(C(=O)c3ccc4c(c3)C(NC(=O)c3ccccc3Cl)CC4)C2)CC1 (stereo not drawn) [IND_CC-578, N-[6-[8-(5-tert-Butyl-2-methyl-2H-pyrazole-3-carbonyl)-2,8-diazaspiro-[4.5]decane-2-carbonyl]-2,3-dihydro-1H-inden-1-yl]-2-chloro-benzamide]
9 | 59% | CC(C)CN1CCC2(CC1)CCN(C(=O)c1ccc3c(c1)C(NC(=O)c1cccc(Cl)c1Cl)CC3)C2 (stereo not drawn) [IND_CC-747, 2,3-Dichloro-N-[6-[8-(2-methyl-propyl)-2,8-diazaspiro[4.5]decane-2-carbonyl]-2,3-dihydro-1H-inden-1-yl]-benzamide]
10 | 60% | O=C(NC1CCc2ccc(C(=O)N3CCC4(CC3)CCN(c3ccc(C(F)(F)F)cc3)CC4)cc21)c1cc(F)ccc1Cl (stereo not drawn) [IND_CC-222, 2-Chloro-5-fluoro-N-[6-[9-[4-(trifluoromethyl)-phenyl]-3,9-diazaspiro[5.5]undecane-3-carbonyl]-2,3-dihydro-1H-inden-1-yl]-benzamide]
11 | 100% | O=C(NC1CCc2ccc(C(=O)N3CCC4(CCN(Cc5ccc6ncccc6c5)CC4)C3)cc21)c1ccccc1Cl (stereo not drawn) [IND_CC-567, 2-Chloro-N-[6-[8-(quinolin-6-yl-methyl)-2,8-diazaspiro[4.5]decane-2-carbonyl]-2,3-dihydro-1H-inden-1-yl]-benzamide]
12 | 76% | O=C(NC1CCc2ccc(C(=O)N3CCC4(CCN(C(=O)Cc5ccc(Cl)cc5)CC4)C3)cc21)c1sccc1Cl (stereo not drawn) [IND_CC-586, 3-Chloro-N-[6-[8-[2-(4-chlorophenyl)-acetyl]-2,8-diazaspiro[4.5]decane-2-carbonyl]-2,3-dihydro-1H-inden-1-yl]-thiophene-2-carboxylic acid amide]
13 | 85% | O=C(NC1CCc2ccc(C(=O)N3CCC4(CCN(Cc5csnn5)CC4)CC3)cc21)c1cc(C(F)(F)F)ccc1Cl (stereo not drawn) [IND_CC-663, 2-Chloro-N-[6-[9-([1,2,3]thiadiazol-4-yl-methyl)-3,9-diazaspiro[5.5]undecane-3-carbonyl]-2,3-dihydro-1H-inden-1-yl]-5-(trifluoromethyl)-benzamide]
14 | 75% | CCC(CC)CN1CCC2(CC1)CCN(C(=O)c1ccc3c(c1)C(NC(=O)c1cc(C(F)(F)F)ccc1Cl)CC3)CC2 (stereo not drawn) [IND_CC-699, 2-Chloro-N-[6-[9-(2-ethyl-butyl)-3,9-diazaspiro[5.5]undecane-3-carbonyl]-2,3-dihydro-1H-inden-1-yl]-5-(trifluoromethyl)-benzamide]
15 | 98% | O=C(NC1CCc2ccc(C(=O)N3CCC4(CCN(Cc5c(F)cccc5F)CC4)CC3)cc21)c1ccccc1Cl (stereo not drawn) [IND_CC-513, 2-Chloro-N-[6-[9-[(2,6-difluoro-phenyl)-methyl]-3,9-diazaspiro[5.5]undecane-3-carbonyl]-2,3-dihydro-1H-inden-1-yl]-benzamide]
16 | 52% | O=C(Nc1c(Cl)cccc1Cl)N1CCC2(CC1)CCN(C(=O)c1ccc3c(c1)C(N(C(=O)c1ccccc1Cl)C1CC1)CC3)C2 (stereo not drawn) [IND_CC-718, 2-[3-[(2-Chloro-benzoyl)-cyclopropyl-amino]-2,3-dihydro-1H-indene-5-carbonyl]-N-(2,6-dichloro-phenyl)-2,8-diazaspiro[4.5]decane-8-carboxylic acid amide]
17 | 91% | O=C(NC1CCc2ccc(C(=O)N3CCC4(CC3)CCN(C(=O)c3cnccn3)CC4)cc21)c1ccccc1Cl (stereo not drawn) [IND_CC-594, 2-Chloro-N-[6-[9-(pyrazine-2-carbonyl)-3,9-diazaspiro[5.5]undecane-3-carbonyl]-2,3-dihydro-1H-inden-1-yl]-benzamide]
18 | 83% | Cc1cccc(Cl)c1C(=O)NC1CCc2ccc(C(=O)N3CCC4(CCN(Cc5ccccc5C#N)CC4)C3)cc21 (stereo not drawn) [IND_CC-733, 2-Chloro-N-[6-[8-[(2-cyano-phenyl)-methyl]-2,8-diazaspiro[4.5]decane-2-carbonyl]-2,3-dihydro-1H-inden-1-yl]-6-methyl-benzamide]
19 | 95% | COc1ccc(C(=O)NC2CCc3ccc(C(=O)N4CCC5(CCN(c6ccncc6)CC5)C4)cc32)c(F)c1 (stereo not drawn) [IND_CC-313, 2-Fluoro-4-methoxy-N-[6-(8-pyridin-4-yl-2,8-diazaspiro[4.5]decane-2-carbonyl)-2,3-dihydro-1H-inden-1-yl]-benzamide]
20 | 72% | O=C(c1ccc2c(c1)C(N(C(=O)c1ccccc1Cl)C1CC1)CC2)N1CCC2(CCN(Cc3c(F)cccc3F)CC2)C1 (stereo not drawn) [IND_CC-520, 2-Chloro-N-cyclopropyl-N-[6-[8-[(2,6-difluoro-phenyl)-methyl]-2,8-diazaspiro[4.5]decane-2-carbonyl]-2,3-dihydro-1H-inden-1-yl]-benzamide]
21 | 106% | O=C(c1ccc2c(c1)C(NS(=O)(=O)Cc1ccccc1F)CC2)N1CCC2(CC1)CCN(c1ccncc1)C2 (stereo not drawn) [IND_CC-350, 1-(2-Fluorophenyl)-N-[6-(2-pyridin-4-yl-2,8-diazaspiro[4.5]decane-8-carbonyl)-2,3-dihydro-1H-inden-1-yl]-methanesulfonic acid amide]
22 | 74% | O=C(c1ccc2c(c1)C(NS(=O)(=O)c1cc(Cl)c(Cl)cc1Cl)CC2)N1CCC2(CC1)CCN(c1ccncc1)C2 (stereo not drawn) [IND_CC-363, 2,4,5-Trichloro-N-[6-(2-pyridin-4-yl-2,8-diazaspiro[4.5]decane-8-carbonyl)-2,3-dihydro-1H-inden-1-yl]-benzenesulfonic acid amide]
23 | 103% | CC(C)(C)CC(=O)NC1CCc2ccc(C(=O)N3CCC4(CCN(c5ccncc5)CC4)C3)cc21 (stereo not drawn) [IND_CC-374, 3,3-Dimethyl-N-[6-(8-pyridin-4-yl-2,8-diazaspiro[4.5]decane-2-carbonyl)-2,3-dihydro-1H-inden-1-yl]-butyramide]
24 | 86% | N#Cc1ccccc1CN1CCC2(CC1)CCN(C(=O)c1ccc3c(c1)C(NC(=O)c1cccc(Cl)c1Cl)CC3)C2 (stereo not drawn) [IND_CC-724, 2,3-Dichloro-N-[6-[8-[(2-cyano-phenyl)-methyl]-2,8-diazaspiro[4.5]decane-2-carbonyl]-2,3-dihydro-1H-inden-1-yl]-benzamide]
25 | 92% | N#Cc1ccccc1CN1CCC2(CC1)CCN(C(=O)c1ccc3c(c1)C(NC(=O)c1ccccc1Cl)CC3)C2 (stereo not drawn) [IND_CC-563, 2-Chloro-N-[6-[8-[(2-cyano-phenyl)-methyl]-2,8-diazaspiro[4.5]decane-2-carbonyl]-2,3-dihydro-1H-inden-1-yl]-benzamide]
26 | 103% | O=C(NC1CCc2ccc(C(=O)N3CCC4(CCN(c5ccncc5)CC4)C3)cc21)c1ccc(F)cc1C(F)(F)F (stereo not drawn) [IND_CC-382, 4-Fluoro-N-[6-(8-pyridin-4-yl-2,8-diazaspiro[4.5]decane-2-carbonyl)-2,3-dihydro-1H-inden-1-yl]-2-(trifluoromethyl)-benzamide]

Same assay, conditions: rat B1R

Row | Molecule | % Inhibition (rat B1R) at 10 μM
27 | 2-Chloro-N-[6-[9-[(1-methyl-1H-benzotriazol-5-yl)-methyl]-3,9-diazaspiro[5.5]-undecane-3-carbonyl]-2,3-dihydro-1H-inden-1-yl]-5-(trifluoromethyl)-benzamide [IND_CC-697] | 98%
